Source: PubChem BioAssay AID256 (DTP/NCI, 2004)
Several values for one entry are separate records, joined by “and”; a condition that tells them apart may be missing. Equal entries are not always repeated. Toxic doses and inconclusive results are not listed.

Tested on: CD2F1 mice, L1210 leukemia ip, survival T/C
Test: NCI In Vivo Anticancer Drug Screen. Data for tumor model L1210 Leukemia (intraperitoneal) in CD2F1 (CDF1) mice
Details: endpoint: mean survival time, higher = longer survival
In short: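 Compound-dosed mice with transplantable tumor versus matched vehicle controls; endpoint ratio T/C reported.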

[1] = dose: 100.0 mg/kg/injection, schedule: Q01DX001 (ip), vehicle: saline
[2] = dose: 200.0 mg/kg/injection, schedule: Q01DX001 (ip), vehicle: saline
[3] = dose: 400.0 mg/kg/injection, schedule: Q01DX001 (ip), vehicle: saline
[4] = dose: 100.0 mg/kg/injection, schedule: Q01DX009 (ip), vehicle: saline with Tween-80
[5] = dose: 200.0 mg/kg/injection, schedule: Q01DX009 (ip), vehicle: saline with Tween-80

For CC1CC(O)C(N)C(O)C1 (stereo not given), the T/C [1] was 103 % of control, the T/C [2] was 98 % of control and the T/C [3] was 98 % of control.
With COc1ccc(NC(=S)/C(=C(\[O-])c2ccc([N+](=O)[O-])cc2)[n+]2ccc(C(C)C)cc2)cc1 the T/C [4] was 91 % of control and the T/C [5] was 97 % of control.
Cc1ccc(S(=O)(=O)c2ccc(F)cc2)cc1 was tested, and the T/C [4] was 100 % of control, the T/C [5] was 102 % of control and the T/C (dose: 400.0 mg/kg/injection, schedule: Q01DX009 (ip), vehicle: saline with Tween-80) was 96 % of control.
With Nc1cccc2c(S(=O)(=O)O)cccc12 the T/C (dose: 100.0 mg/kg/injection, schedule: Q04DX003 (ip), vehicle: saline) was 100 % of control, the T/C (dose: 200.0 mg/kg/injection, schedule: Q04DX003 (ip), vehicle: saline) was 100 % of control and the T/C (dose: 400.0 mg/kg/injection, schedule: Q04DX003 (ip), vehicle: saline) was 97 % of control.
Oc1c(Br)cc(Br)cc1/C=N/c1nc(-c2ccccc2)cs1.Oc1c(Br)cc(Br)cc1/C=N/c1nc(-c2ccccc2)cs1.[Co] was tested, and the T/C (dose: 25.0 mg/kg/injection, schedule: Q01DX001 (ip), vehicle: saline) was 100 % of control, the T/C (dose: 50.0 mg/kg/injection, schedule: Q01DX001 (ip), vehicle: saline) was 100 % of control and the T/C [1] was 87 % of control.
For Clc1ccc2scc3c4ccccc4nc-3c2c1, the T/C (dose: 25.0 mg/kg/injection, schedule: Q01DX009 (ip), vehicle: saline) was 104 % of control and the T/C (dose: 50.0 mg/kg/injection, schedule: Q01DX009 (ip), vehicle: saline) was 101 % of control.
In the case of O=c1cnn(C2OC(CO)C(O)C2O)c(=O)[nH]1 (stereo not given), the T/C (dose: 12.5 mg/kg/injection, schedule: Q03HX024 (ip), vehicle: saline) is reported as 119 % of control, the T/C (dose: 50.0 mg/kg/injection, schedule: Q01DX005 (ip), vehicle: water) is reported as 115 % of control and 120 % of control and the T/C (dose: 50.0 mg/kg/injection, schedule: Q03HX024 (ip), vehicle: saline) is reported as 91 % of control. The T/C [1] was 105 % of control, the T/C (dose: 100.0 mg/kg/injection, schedule: Q01DX005 (ip), vehicle: water) was 117 % of control and 121 % of control and 106 % of control and the T/C (dose: 100.0 mg/kg/injection, schedule: Q01DX009 (ip), vehicle: distilled water + Tween-80) was 119 % of control. The T/C (dose: 100.0 mg/kg/injection, schedule: Q01DX009 (ip), vehicle: saline) was 122 % of control, the T/C (dose: 143.0 mg/kg/injection, schedule: Q03HX016 (ip), vehicle: other) was 122 % of control and the T/C [2] was 101 % of control. The T/C (dose: 200.0 mg/kg/injection, schedule: Q01DX005 (ip), vehicle: water) was 121 % of control and 123 % of control and 108 % of control, the T/C (dose: 200.0 mg/kg/injection, schedule: Q01DX009 (ip), vehicle: saline) was 86 % of control and the T/C (dose: 300.0 mg/kg/injection, schedule: Q03HX024 (ip), vehicle: other) was 151 % of control. For the same molecule, the T/C [3] was 108 % of control, the T/C (dose: 400.0 mg/kg/injection, schedule: Q01DX005 (ip), vehicle: water) was 116 % of control and the T/C (dose: 400.0 mg/kg/injection, schedule: Q01DX009 (ip), vehicle: saline) was 94 % of control. The T/C (dose: 500.0 mg/kg/injection, schedule: Q03HX016 (ip), vehicle: other) was 152 % of control, the T/C (dose: 500.0 mg/kg/injection, schedule: Q03HX024 (ip), vehicle: other) was 181 % of control and the T/C (dose: 800.0 mg/kg/injection, schedule: Q01DX001 (ip), vehicle: saline) was 110 % of control. The T/C (dose: 800.0 mg/kg/injection, schedule: Q01DX005 (ip), vehicle: water) was 110 % of control, the T/C (dose: 800.0 mg/kg/injection, schedule: Q01DX009 (ip), vehicle: distilled water + Tween-80) was 154 % of control and the T/C (dose: 1000.0 mg/kg/injection, schedule: Q03HX016 (ip), vehicle: other) was 152 % of control. For the same molecule, the T/C (dose: 1000.0 mg/kg/injection, schedule: Q03HX024 (ip), vehicle: other) was 167 % of control, the T/C (dose: 1600.0 mg/kg/injection, schedule: Q01DX009 (ip), vehicle: distilled water + Tween-80) was 160 % of control and the T/C (dose: 1600.0 mg/kg/injection, schedule: Q01DX009 (ip), vehicle: saline) was 121 % of control.
